In ChEMBL document CHEMBL4219226, “Terpenoids isolated from Chinese liverworts Lepidozia reptans and their anti-inflammatory activity” (Bioorg Med Chem, 2018):
Active and inactive are the calls of the source. No cut-off for these calls is given here.

Experiments:
THP-1 [1] = assay: Antiinflammatory activity in human THP1 cells assessed as inhibition of LPS-induced IL-alpha mRNA level preincubated for 1 hr followed by LPS stimulation measured after 12 hrs by qPCR method; type: functional, cell-based
[2] = target: Transcription factor p65 (Homo sapiens) (UniProt Q04206); assay: Inhibition of LPS-induced NFkB p65 phosphorylation in cytoplasm of human THP1 cells preincubated for 1 hr followed by LPS stimulation measured after 12 hrs by Western blot method
[3] = target: Transcription factor p65 (Homo sapiens) (UniProt Q04206); assay: Inhibition of LPS-induced NFkB p65 nuclear translocation in human THP1 cells preincubated for 1 hr followed by LPS stimulation measured after 12 hrs by Western blot method; type: cell-based
[4] = target: T1, Transcription factor E3 (Homo sapiens) (UniProt P19532); assay: Inhibition of GFP-fused TFE3 (unknown origin) expressed in HEK293T cells assessed as reduction in LPS-induced TFE3 nuclear translocation at 100 uM preincubated for 1 hr followed by LPS stimulation measured after 12 hrs by DAPI staining based confocal microscopic method; type: cell-based
T1 sequence (whole entry): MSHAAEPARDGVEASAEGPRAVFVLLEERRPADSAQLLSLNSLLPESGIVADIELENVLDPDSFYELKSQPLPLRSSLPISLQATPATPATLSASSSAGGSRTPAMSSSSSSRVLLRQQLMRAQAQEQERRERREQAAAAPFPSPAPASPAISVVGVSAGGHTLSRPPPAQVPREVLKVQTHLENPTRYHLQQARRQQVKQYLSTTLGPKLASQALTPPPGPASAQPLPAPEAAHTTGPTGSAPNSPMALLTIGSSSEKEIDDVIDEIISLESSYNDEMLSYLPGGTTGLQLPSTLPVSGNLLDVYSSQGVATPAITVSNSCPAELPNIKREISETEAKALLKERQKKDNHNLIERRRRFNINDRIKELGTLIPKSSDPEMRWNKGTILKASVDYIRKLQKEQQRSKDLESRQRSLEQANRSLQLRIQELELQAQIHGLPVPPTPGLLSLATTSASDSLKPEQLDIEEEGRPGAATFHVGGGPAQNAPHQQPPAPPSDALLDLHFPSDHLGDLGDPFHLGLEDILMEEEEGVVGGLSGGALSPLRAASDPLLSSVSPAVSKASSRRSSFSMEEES

THP-1 [5] = assay: Inhibition of LPS-induced STAT1 nuclear translocation in human THP1 cells at 50 to 100 uM preincubated for 1 hr followed by LPS stimulation measured after 12 hrs by Western blot method; type: functional, cell-based
RAW264.7 [6] = assay: Cytotoxicity against mouse RAW264.7 cells assessed as reduction in cell viability by MTT assay; type: cell-based
RAW264.7 [7] = assay: Antiinflammatory activity in mouse RAW264.7 cells assessed as inhibition of LPS-induced nitric oxide production after 24 hrs by Griess method; type: functional, cell-based; conditions: RAW264.7, 24 h
THP-1 [8] = assay: Antiinflammatory activity in human THP1 cells assessed as inhibition of LPS-induced IL-6 mRNA level preincubated for 1 hr followed by LPS stimulation measured after 12 hrs by qPCR method; type: functional, cell-based
THP-1 [9] = assay: Inhibition of LPS-induced STAT3 nuclear translocation in human THP1 cells at 50 to 100 uM preincubated for 1 hr followed by LPS stimulation measured after 12 hrs by Western blot method; type: functional, cell-based
[10] = target: Transcription factor p65 (Homo sapiens) (UniProt Q04206); assay: Inhibition of GFP-fused NFkB p65 (unknown origin) expressed in HEK293T cells assessed as reduction in LPS-induced p65 nuclear translocation at 100 uM preincubated for 1 hr followed by LPS stimulation measured after 12 hrs by DAPI staining based confocal microscopic method; type: cell-based
THP-1 [11] = assay: Antiinflammatory activity in human THP1 cells assessed as inhibition of LPS-induced IL-beta mRNA level preincubated for 1 hr followed by LPS stimulation measured after 12 hrs by qPCR method; type: functional, cell-based
THP-1 [12] = assay: Antiinflammatory activity in human THP1 cells assessed as inhibition of LPS-induced […] mRNA level at 50 to 100 uM preincubated for 1 hr followed by LPS stimulation measured after 12 hrs by qPCR method; type: functional, cell-based
THP-1 [13] = assay: Inhibition of LPS-induced TFEB nuclear translocation in human THP1 cells at 50 to 100 uM preincubated for 1 hr followed by LPS stimulation measured after 12 hrs by Western blot method; type: functional, cell-based
THP-1 [14] = assay: Antiinflammatory activity in human THP1 cells assessed as inhibition of LPS-induced COX-2 protein level at 50 to 100 uM preincubated for 1 hr followed by LPS stimulation measured after 12 hrs by Western blot method; type: functional, cell-based
THP-1 [15] = assay: Antiinflammatory activity in human THP1 cells assessed as inhibition of LPS-induced TNF-alpha mRNA level preincubated for 1 hr followed by LPS stimulation measured after 12 hrs by qPCR method; type: functional, cell-based
[16] = target: T1, Transcription factor E3 (Homo sapiens); assay: Inhibition of LPS-induced TFE3 nuclear translocation in human THP1 cells at 50 to 100 uM preincubated for 1 hr followed by LPS stimulation measured after 12 hrs by Western blot method; type: cell-based
THP-1 [17] = assay: Antiinflammatory activity in human THP1 cells assessed as inhibition of LPS-induced […] mRNA level at 12 to 25 uM preincubated for 1 hr followed by LPS stimulation measured after 12 hrs by qPCR method; type: functional, cell-based
[18] = target: T1, Transcription factor E3 (Homo sapiens); assay: Inhibition of LPS-induced TFE3 nuclear translocation in human THP1 cells at 12 to 25 uM preincubated for 1 hr followed by LPS stimulation measured after 12 hrs by Western blot method; type: cell-based

Chain of Transcription factor p65 (Homo sapiens) (Q04206 whole entry, the tested form may be a part): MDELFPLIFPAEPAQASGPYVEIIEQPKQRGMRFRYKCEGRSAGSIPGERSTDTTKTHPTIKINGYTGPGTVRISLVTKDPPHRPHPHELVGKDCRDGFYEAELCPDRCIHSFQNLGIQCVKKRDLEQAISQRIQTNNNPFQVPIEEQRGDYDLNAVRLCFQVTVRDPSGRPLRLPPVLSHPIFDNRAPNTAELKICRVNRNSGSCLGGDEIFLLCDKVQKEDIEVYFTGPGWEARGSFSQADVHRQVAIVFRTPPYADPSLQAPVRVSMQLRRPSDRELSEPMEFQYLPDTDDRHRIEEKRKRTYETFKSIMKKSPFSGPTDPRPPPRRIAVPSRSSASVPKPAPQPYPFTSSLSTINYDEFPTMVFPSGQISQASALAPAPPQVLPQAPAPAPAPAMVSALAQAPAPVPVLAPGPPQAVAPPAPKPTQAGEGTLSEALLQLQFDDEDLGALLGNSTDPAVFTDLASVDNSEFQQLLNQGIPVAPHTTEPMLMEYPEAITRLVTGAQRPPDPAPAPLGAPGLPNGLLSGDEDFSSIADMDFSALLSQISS

SMILES | inhibition (THP-1 [1]) | inhibition [2] | inhibition [3] | inhibition [4] | inhibition (THP-1 [5]) | IC50 (RAW264.7 [6]) [µM] | IC50 (RAW264.7 [7]) [µM] | inhibition (THP-1 [8]) | inhibition (THP-1 [9]) | inhibition [10] | inhibition (THP-1 [11]) | inhibition (THP-1 [12]) | inhibition (THP-1 [13]) | inhibition (THP-1 [14]) | inhibition (THP-1 [15]) | inhibition [16] | inhibition (THP-1 [17]) | inhibition [18]
C/C1=C/C(=O)C/C(C)=C/C[C@]2(C)CC[C@](O)(C(C)C)[C@H]2CC1 | Dose-dependent effect | Dose-dependent effect | Dose-dependent effect | Active | inactive | > 100 | 34.9 | Dose-dependent effect | inactive | Active | Dose-dependent effect | Active | inactive | Active | Dose-dependent effect | Active |  | 
CC1=C(C)C(=O)C(CC[C@@](C)(O)CCC[C@@H](C)CCC[C@@H](C)CCCC(C)C)=C(C)C1=O |  |  |  |  |  | > 100 | > 100 |  |  |  |  |  |  |  |  |  |  | 
O=c1cc(-c2ccc(O)c(O)c2)oc2cc(O)cc(O)c12 [LUTEOLIN] |  |  |  |  |  | > 50 | 14.4 |  |  |  |  |  |  |  |  |  | Active | Active
